# Where two headings read alike, the source gives them in different places. Ends that are not written are not given here.
# System: MDR-EAEC isolates
# Description: Initially, characterization of Lfcin (17–30) was performed by determining its minimum inhibitory concentration (MIC), minimum bactericidal concentration (MBC), in vitro stability assays (high-end temperatures, the physiological concentration of cationic salts and proteases), and in vitro safety assays (sheep erythrocyte hemolysis and secondary cell line cytotoxicity) (Supplementary Files S1–S3). The membrane permeabilization effect of Lfcin (17–30) was assessed by flow cytometry, whereas outer and inner membrane permeability of MDR-EAEC strains treated with 1 × and 2 × MIC levels of Lfcin (17–30) was carried out based on the nitrocefin activity as well as the release of cytoplasmic β-galactosidase activity, respectively (Supplementary File S4). Further, Lfcin (17–30) was evaluated for its antibacterial activity against beneficial lactobacilli (L. acidophilus MTCC 10307 and L. rhamnosus MTCC 1408) (Supplementary File S5).
# To explore the utility of Lfcin (17-30) as a therapeutic molecule, in vitro stability was evaluated by exposing it to high-end temperatures, proteases as well as the physiological concentration of salts. In brief, the effect of temperature was investigated by incubating Lfcin (17-30) at 70 °C and 90 °C for 5, 15, and 30 min followed by measuring the MIC value. The effect of proteases (trypsin and proteinase-K) on the antimicrobial activity of Lfcin (17-30) [Protease: AMP- 1:100 (w/w)] was investigated by incubating with the respective protease at 37 °C for 30 sec, 2, 5, 15 and 30 min, followed by inactivating the enzyme at 90 °C for 10 min and measuring the MIC value. The stability of Lfcin (17-30) in the presence of high salt concentrations (150 mM and 2 mM MgCl2) was estimated in regular MH broth. Appropriate controls were included in each experiment.
# [1] = MgCl2 (2 mM), regular MH broth, MDR 1
# [2] = MgCl2 (2 mM), regular MH broth, MDR 2
# [3] = MgCl2 (2 mM), regular MH broth, MDR 3
# [4] = NaCl (150 mM), regular MH broth, MDR 1
# [5] = NaCl (150 mM), regular MH broth, MDR 2
# [6] = NaCl (150 mM), regular MH broth, MDR 3
# [7] = peptide incubated at 70°C for 5 min, MDR 1
# [8] = peptide incubated at 70°C for 5 min, MDR 2
# [9] = peptide incubated at 70°C for 5 min, MDR 3
# [10] = peptide incubated at 70°C for 15 min, MDR 1
# [11] = peptide incubated at 70°C for 15 min, MDR 2
# [12] = peptide incubated at 70°C for 15 min, MDR 3
# [13] = peptide incubated at 70°C for 30 min, MDR 1
# [14] = peptide incubated at 70°C for 30 min, MDR 2
# [15] = peptide incubated at 70°C for 30 min, MDR 3
# [16] = peptide incubated at 90°C for 5 min, MDR 1
# [17] = peptide incubated at 90°C for 5 min, MDR 2
# [18] = peptide incubated at 90°C for 5 min, MDR 3
# [19] = peptide incubated at 90°C for 15 min, MDR 1
# [20] = peptide incubated at 90°C for 15 min, MDR 2
# [21] = peptide incubated at 90°C for 15 min, MDR 3
# [22] = peptide incubated at 90°C for 30 min, MDR 1
# [23] = peptide incubated at 90°C for 30 min, MDR 2
# [24] = peptide incubated at 90°C for 30 min, MDR 3
# [25] = proteinase-K 1:100 (w/w), 37°C, 2 min, MDR 1
# [26] = proteinase-K 1:100 (w/w), 37°C, 2 min, MDR 2
# [27] = proteinase-K 1:100 (w/w), 37°C, 2 min, MDR 3
# [28] = proteinase-K 1:100 (w/w), 37°C, 5 min, MDR 1
# [29] = proteinase-K 1:100 (w/w), 37°C, 5 min, MDR 2
# [30] = proteinase-K 1:100 (w/w), 37°C, 5 min, MDR 3
# [31] = proteinase-K 1:100 (w/w), 37°C, 15 min, MDR 1
# [32] = proteinase-K 1:100 (w/w), 37°C, 15 min, MDR 2
# [33] = proteinase-K 1:100 (w/w), 37°C, 15 min, MDR 3
# [34] = proteinase-K 1:100 (w/w), 37°C, 30 min, MDR 1
# [35] = proteinase-K 1:100 (w/w), 37°C, 30 min, MDR 2
# [36] = proteinase-K 1:100 (w/w), 37°C, 30 min, MDR 3
# [37] = trypsin 1:100 (w/w), 37°C, 2 min, MDR 1
# [38] = trypsin 1:100 (w/w), 37°C, 2 min, MDR 2
# [39] = trypsin 1:100 (w/w), 37°C, 2 min, MDR 3
# [40] = trypsin 1:100 (w/w), 37°C, 5 min, MDR 1
# [41] = trypsin 1:100 (w/w), 37°C, 5 min, MDR 2
# [42] = trypsin 1:100 (w/w), 37°C, 5 min, MDR 3
# [43] = trypsin 1:100 (w/w), 37°C, 15 min, MDR 1
# [44] = trypsin 1:100 (w/w), 37°C, 15 min, MDR 2
# [45] = trypsin 1:100 (w/w), 37°C, 15 min, MDR 3
# [46] = trypsin 1:100 (w/w), 37°C, 30 min, MDR 1
# [47] = trypsin 1:100 (w/w), 37°C, 30 min, MDR 2
# [48] = trypsin 1:100 (w/w), 37°C, 30 min, MDR 3
sequence,measurement,setting,value
FKCRRWQWRMKKLG [Lfcin (17–30)],MBC,[1],32.0 µg/mL
same,MIC,[1],32.0 µg/mL
same,MBC,[2],32.0 µg/mL
same,MIC,[2],32.0 µg/mL
same,MBC,[3],32.0 µg/mL
same,MIC,[3],32.0 µg/mL
same,MBC,[4],32.0 µg/mL
same,MIC,[4],32.0 µg/mL
same,MBC,[5],32.0 µg/mL
same,MIC,[5],32.0 µg/mL
same,MBC,[6],32.0 µg/mL
same,MIC,[6],32.0 µg/mL
same,MBC,[7],32.0 µg/mL
same,MIC,[7],32.0 µg/mL
same,MBC,[8],32.0 µg/mL
same,MIC,[8],32.0 µg/mL
same,MBC,[9],32.0 µg/mL
same,MIC,[9],32.0 µg/mL
same,MBC,[10],32.0 µg/mL
same,MIC,[10],32.0 µg/mL
same,MBC,[11],32.0 µg/mL
same,MIC,[11],32.0 µg/mL
same,MBC,[12],32.0 µg/mL
same,MIC,[12],32.0 µg/mL
same,MBC,[13],32.0 µg/mL
same,MIC,[13],32.0 µg/mL
same,MBC,[14],32.0 µg/mL
same,MIC,[14],32.0 µg/mL
same,MBC,[15],32.0 µg/mL
same,MIC,[15],32.0 µg/mL
same,MBC,[16],32.0 µg/mL
same,MIC,[16],32.0 µg/mL
same,MBC,[17],32.0 µg/mL
same,MIC,[17],32.0 µg/mL
same,MBC,[18],32.0 µg/mL
same,MIC,[18],32.0 µg/mL
same,MBC,[19],32.0 µg/mL
same,MIC,[19],32.0 µg/mL
same,MBC,[20],32.0 µg/mL
same,MIC,[20],32.0 µg/mL
same,MBC,[21],32.0 µg/mL
same,MIC,[21],32.0 µg/mL
same,MBC,[22],32.0 µg/mL
same,MIC,[22],32.0 µg/mL
same,MBC,[23],32.0 µg/mL
same,MIC,[23],32.0 µg/mL
same,MBC,[24],32.0 µg/mL
same,MIC,[24],32.0 µg/mL
same,MBC,"proteinase-K 1:100 (w/w), 37°C, 0.5 min, MDR 1",16.0 µg/mL
same,MBC,"proteinase-K 1:100 (w/w), 37°C, 0.5 min, MDR 2",32.0 µg/mL
same,MBC,"proteinase-K 1:100 (w/w), 37°C, 0.5 min, MDR 3",4.0 µg/mL
same,MBC,[25],16.0 µg/mL
same,MIC,[25],8.0 µg/mL
same,MBC,[26],32.0 µg/mL
same,MIC,[26],8.0 µg/mL
same,MBC,[27],4.0 µg/mL
same,MIC,[27],4.0 µg/mL
same,MBC,[28],16.0 µg/mL
same,MIC,[28],8.0 µg/mL
same,MBC,[29],32.0 µg/mL
same,MIC,[29],8.0 µg/mL
same,MBC,[30],4.0 µg/mL
same,MIC,[30],4.0 µg/mL
same,MBC,[31],16.0 µg/mL
same,MIC,[31],8.0 µg/mL
same,MBC,[32],32.0 µg/mL
same,MIC,[32],8.0 µg/mL
same,MBC,[33],4.0 µg/mL
same,MIC,[33],4.0 µg/mL
same,MBC,[34],8.0 µg/mL
same,MIC,[34],8.0 µg/mL
same,MBC,[35],16.0 µg/mL
same,MIC,[35],8.0 µg/mL
same,MBC,[36],4.0 µg/mL
same,MIC,[36],2.0 µg/mL
same,MIC,"proteinase-K, protease:AMP 1:100 (w/w), 37°C, 0.5 min, enzyme inactivated 90°C 10 min, MDR 1",8.0 µg/mL
same,MIC,"proteinase-K, protease:AMP 1:100 (w/w), 37°C, 0.5 min, enzyme inactivated 90°C 10 min, MDR 2",8.0 µg/mL
same,MIC,"proteinase-K, protease:AMP 1:100 (w/w), 37°C, 0.5 min, enzyme inactivated 90°C 10 min, MDR 3",4.0 µg/mL
same,stability to protease (proteinase-K),"proteinase-K, judged by MIC and MBC",stable
same,MBC,"trypsin 1:100 (w/w), 37°C, 0.5 min, MDR 1",16.0 µg/mL
same,MBC,"trypsin 1:100 (w/w), 37°C, 0.5 min, MDR 2",16.0 µg/mL
same,MBC,"trypsin 1:100 (w/w), 37°C, 0.5 min, MDR 3",16.0 µg/mL
same,MBC,[37],16.0 µg/mL
same,MIC,[37],16.0 µg/mL
same,MBC,[38],16.0 µg/mL
same,MIC,[38],16.0 µg/mL
same,MBC,[39],16.0 µg/mL
same,MIC,[39],16.0 µg/mL
same,MBC,[40],16.0 µg/mL
same,MIC,[40],16.0 µg/mL
same,MBC,[41],16.0 µg/mL
same,MIC,[41],16.0 µg/mL
same,MBC,[42],16.0 µg/mL
same,MIC,[42],16.0 µg/mL
same,MBC,[43],16.0 µg/mL
same,MIC,[43],16.0 µg/mL
same,MBC,[44],16.0 µg/mL
same,MIC,[44],16.0 µg/mL
same,MBC,[45],32.0 µg/mL
same,MIC,[45],16.0 µg/mL
same,MBC,[46],16.0 µg/mL
same,MIC,[46],16.0 µg/mL
same,MBC,[47],16.0 µg/mL
same,MIC,[47],16.0 µg/mL
same,MBC,[48],32.0 µg/mL
same,MIC,[48],16.0 µg/mL
same,MIC,"trypsin, protease:AMP 1:100 (w/w), 37°C, 0.5 min, enzyme inactivated 90°C 10 min, MDR 1",16.0 µg/mL
same,MIC,"trypsin, protease:AMP 1:100 (w/w), 37°C, 0.5 min, enzyme inactivated 90°C 10 min, MDR 2",16.0 µg/mL
same,MIC,"trypsin, protease:AMP 1:100 (w/w), 37°C, 0.5 min, enzyme inactivated 90°C 10 min, MDR 3",16.0 µg/mL
same,stability to protease (trypsin),"trypsin, judged by MIC and MBC",stable

# From paper PMC7531601, “Exploiting Lactoferricin (17–30) as a Potential Antimicrobial and Antibiofilm Candidate Against Multi-Drug-Resistant Enteroaggregative Escherichia coli” (Frontiers in Microbiology, 2020)
